The values that follow come from ChEMBL document CHEMBL4396945, “Hybrid molecules of scutellarein and tertramethylpyrazine's active metabolites for ischemic stroke” (Bioorg Med Chem Lett, 2019).

Values after ≈ are worked out from the molar mass of the structure shown. Active and inactive are the calls of the source. The rule behind the calls is not given here.

The nature of data set [1]: Stability in pH 7.4 phosphate buffer assessed as half life. The data set is classed as physicochemical.
A short description of data set [2]: Solubility in water. The data set is classed as physicochemical.
Data set [3] in a line: Lipophilicity, logP of compound. The data set is classed as physicochemical. The conditions noted are these: octanol/water.
The test system of another data set is PC-12. As to the kind of experiment: Antioxidant activity against H2O2-induced oxidative stress in rat PC12 cells assessed as cell viability preincubated for 24 hrs followed by H2O2 stimulation further incubated for 5 hrs by MTS assay. The data set is classed as functional, cell-based. Background: Formazan colour is commonly taken as a measure of viable cells.

Data set [4] concerns Plasma. As to the kind of experiment: Anticoagulant activity in rabbit platelet poor plasma assessed as thrombin time at 100 uM incubated for 3 mins by coagulometric analysis (reference value: 12.58 +/- 0.76 sec). Format: functional, Oryctolagus cuniculus.
Data set [5] has as its system Plasma. Put plainly: Anticoagulant activity in rabbit platelet poor plasma assessed as activated partial thromboplastin time at 100 uM incubated for 3 mins by coagulometric analysis (reference value: 19.13 +/- 0.54 sec). Format: functional, Oryctolagus cuniculus.
Data set [6] concerns Plasma. Put plainly: Anticoagulant activity in rabbit platelet poor plasma assessed as prothrombin time at 100 uM incubated for 3 mins by coagulometric analysis (reference value: 4.32 +/- 0.28 sec). The data set is classed as functional, Oryctolagus cuniculus.
In data set [7] the test system is Plasma. As to the kind of experiment: Anticoagulant activity in rabbit platelet poor plasma assessed as fibrinogen level at 100 uM incubated for 3 mins by coagulometric analysis (reference value: 14.24 +/- 0.67 g/l). The data set is classed as functional, Oryctolagus cuniculus.
In data set [8] the test system is Rattus norvegicus. As to the kind of experiment: Neuroprotective activity in ig dosed Sprague-Dawley rat model of middle cerebral artery occlusion-induced ischemia-reperfusion injury assessed as decrease in infarct area by TTC staining based assay. The data set is classed as functional, organism-based.
Data set [9] deals with Rattus norvegicus. As to the kind of experiment: Neuroprotective activity in Sprague-Dawley rat middle cerebral artery occlusion-induced ischemia-reperfusion injury model assessed as decrease in irregular cell morphology of hippocampus CA1 at 0.35 to 1.40 mmol/kg, ig administered for 7 days by HE staining based assay. Format: functional, organism-based.
The test system of data set [10] is Rattus norvegicus. As to the kind of experiment: Neuroprotective activity in Sprague-Dawley rat middle cerebral artery occlusion-induced ischemia-reperfusion injury model assessed as reduction in hyperchromic of hippocampus CA1 at 0.35 to 1.40 mmol/kg, ig administered for 7 days by HE staining based assay. The data set is classed as functional, organism-based.

Data set [11] deals with Rattus norvegicus. Put plainly: Neuroprotective activity in Sprague-Dawley rat middle cerebral artery occlusion-induced ischemia-reperfusion injury model assessed as reduction in nuclear pyknosis of hippocampus CA1 at 0.35 to 1.40 mmol/kg, ig administered for 7 days by HE staining based assay. Format: functional, organism-based.
For data set [12], the system named is Rattus norvegicus. Put plainly: Neuroprotective activity in Sprague-Dawley rat middle cerebral artery occlusion-induced ischemia-reperfusion injury model assessed as reduction in dissolution of hippocampus CA1 at 0.35 to 1.40 mmol/kg, ig administered for 7 days by HE staining based assay. Format: functional, organism-based.
Data set [13] concerns Rattus norvegicus. As to the kind of experiment: Neuroprotective activity in Sprague-Dawley rat model of middle cerebral artery occlusion-induced ischemia-reperfusion injury assessed as decrease in infarct area at 0.7 mmol/kg, ig for 7 days by TTC staining based assay. The data set is classed as functional, organism-based.

For orientation: half-life means the time in which the quantity being followed falls by half. What is called solubility is the concentration that dissolves in the medium under given conditions. Read a low solubility as a poorly soluble substance. One may read the logP as a log measure of how a compound divides between an organic and an aqueous phase.

For `Cc1nc(C)c(C(=O)NCC(=O)Oc2ccc(-c3cc(=O)c4c(O)c(O)c(O)cc4o3)cc2)nc1C`, the half-life in [1] is > 72 h. In data set [2], this compound registered a solubility of 628 µg/mL (≈ 1280 µM). Also, the logP in data set [3] is 2.8. In the data set on PC-12, the Activity entry is “Dose-dependent effect”. In the data set on Plasma [4], the TT is reported as 32.16 s. For the same compound, in the data set with Plasma [5], the APTT is recorded as 43.57 s. Also, in the data set on Plasma [6], the PT is on record as 6.39 s. For the same compound, in the data set with Plasma [7], the Fibrinogen level amounted to 3.12 g/L.

Regarding `Cc1nc(C)c(COC(=O)N[C@@H](C(=O)Oc2ccc(-c3cc(=O)c4c(O)c(O)c(O)cc4o3)cc2)C(C)C)nc1C`, the half-life in data set [1] is 45.6 h. For the same compound, the concentration in solution in data set [2] (solubility) was 252 µg/mL (≈ 448 µM). Besides, the log partition coefficient (logP) in data set [3] came to 1.04. Moreover, the Activity result in the data set with PC-12 was “Dose-dependent effect”.

On to `Cc1nc(C)c(COC(=O)NCC(=O)Oc2ccc(-c3cc(=O)c4c(O)c(O)c(O)cc4o3)cc2)nc1C`, for which the half-life in [1] is 14.3 h. The same compound displayed a solubility in [2] of 454 µg/mL (≈ 871 µM). The compound also registered a logP in data set [3] of 2.1. Moreover, the Activity entry in the data set on PC-12 was “Dose-dependent effect”.

Consider `CC[C@H](C)[C@@H](NC(=O)OCc1nc(C)c(C)nc1C)C(=O)Oc1ccc(-c2cc(=O)c3c(O)c(O)c(O)cc3o2)cc1`, for which the half-life in data set [1] was 64.8 h. The compound also returned a solubility in data set [2] of 234 µg/mL (≈ 406 µM). For the same compound, in [3], the logP came out at 2.83. Also, in the data set with PC-12, the Activity entry is “Dose-dependent effect”. Further, the TT with Plasma [4] was found to be 38.42 s. Further, the APTT with Plasma [5] came out at 49.28 s. Further, the PT in the data set with Plasma [6] is reported as 8.32 s. Besides, the Fibrinogen level in the data set with Plasma [7] turned out to be 2.54 g/L.

As to `Cc1nc(C)c(COC(=O)N[C@H](C)C(=O)Oc2ccc(-c3cc(=O)c4c(O)c(O)c(O)cc4o3)cc2)nc1C`, the half-life in [1] was 27.8 h. This compound gave a solubility in data set [2] of 799 µg/mL (≈ 1490 µM). In data set [3], this compound came in with a logP of 1.53. For the same compound, the Activity entry in the data set on PC-12 and with Rattus norvegicus [8] was “Dose-dependent effect” in each case. Further, the TT in the data set on Plasma [4] is recorded as 36.25 s. In addition, the APTT in the data set on Plasma [5] is 48.21 s. The PT in the data set with Plasma [6] amounted to 7.72 s. In addition, the Fibrinogen level with Plasma [7] is reported as 2.68 g/L. Moreover, the outcome with Rattus norvegicus [9], in the data set with Rattus norvegicus [10], in the data set with Rattus norvegicus [11] and with Rattus norvegicus [12] was Active.

For the compound `Cc1nc(C)c(COC(=O)N[C@H](CC(C)C)C(=O)Oc2ccc(-c3cc(=O)c4c(O)c(O)c(O)cc4o3)cc2)nc1C`, the half-life in data set [1] was 57.2 h. In addition, in [2], the concentration in solution (solubility) was 221 µg/mL (≈ 382 µM). Also, the logP in [3] turned out to be 1.69. Moreover, the Activity result in the data set with PC-12 was “Dose-dependent effect”. Besides, the TT in the data set on Plasma [4] was 37.91 s. Further, in the data set with Plasma [5], the APTT is on record as 47.56 s. The PT in the data set with Plasma [6] was 8.57 s. The Fibrinogen level with Plasma [7] came out at 2.47 g/L.

With `Cc1nc(C)c(C(=O)N[C@@H](C(=O)Oc2ccc(-c3cc(=O)c4c(O)c(O)c(O)cc4o3)cc2)C(C)C)nc1C`, the half-life in [1] was > 72 h. Further, the concentration in solution in data set [2] (solubility) came to 240 µg/mL (≈ 449 µM). Moreover, in data set [3], the log partition coefficient (logP) was 1.38. The Activity entry in the data set on PC-12 was “Dose-dependent effect”.

For the compound `Cc1nc(C)c(C(=O)N[C@H](CC(C)C)C(=O)Oc2ccc(-c3cc(=O)c4c(O)c(O)c(O)cc4o3)cc2)nc1C`, the half-life in [1] is 69.2 h. Besides, the solubility in [2] is 26 µg/mL (≈ 47.5 µM). The same compound gave a logP in [3] of 0.91. In addition, the Activity entry in the data set with PC-12 was “Dose-dependent effect”.

In data set [2], `Cc1nc(C)c(C)nc1C` [LIGUSTRAZINE] showed a solubility of 4500 µg/mL (≈ 33000 µM). In data set [3], this compound displayed a logP of 1.26. In addition, the Activity result with PC-12 was “Dose-dependent effect”. Moreover, the TT with Plasma [4] stood at 25.36 s. Besides, the APTT with Plasma [5] came out at 39.24 s. Moreover, the PT in the data set with Plasma [6] amounted to 6.13 s. The Fibrinogen level with Plasma [7] came to 3.28 g/L. Moreover, in the data set on Rattus norvegicus [13], the outcome was Active.

For `O=c1cc(-c2ccc(O)cc2)oc2cc(O)c(O)c(O)c12` [SCUTELLAREIN], the half-life in [1] was 5.5 h. The compound also came in with a solubility in data set [2] of 14.4 µg/mL (≈ 50.3 µM). This compound had a logP in data set [3] of 0.96. The Activity result in the data set on PC-12 was “Dose-dependent effect”. Further, the TT in the data set on Plasma [4] came out at 18.12 s. For the same compound, the APTT in the data set on Plasma [5] was 34.26 s. For the same compound, the PT with Plasma [6] stood at 5.72 s. Also, in the data set with Plasma [7], the Fibrinogen level is reported as 7.41 g/L. Moreover, in the data set on Rattus norvegicus [13], the outcome was Active.

On to `Cc1nc(C)c(COC(=O)CCCOc2ccc(-c3cc(=O)c4c(O)c(O)c(O)cc4o3)cc2)nc1C`, for which the half-life in [1] is 19.8 h. Moreover, the concentration in solution in data set [2] (solubility) was 356 µg/mL (≈ 703 µM). This compound registered a logP in data set [3] of 1.48. Besides, the Activity entry in the data set on PC-12 was “Dose-dependent effect”.

On to `Cc1nc(C)c(COC(=O)COc2ccc(-c3cc(=O)c4c(O)c(O)c(O)cc4o3)cc2)nc1C`, for which the half-life in data set [1] was 21.4 h. The compound also yielded a solubility in data set [2] of 30.6 µg/mL (≈ 64 µM). In addition, the logP in data set [3] turned out to be 2.39. Also, the Activity entry in the data set with PC-12 is “Dose-dependent effect”.

With `Cc1nc(C)c(C(=O)Oc2ccc(-c3cc(=O)c4c(O)c(O)c(O)cc4o3)cc2)nc1C`, the half-life in data set [1] is 15.1 h. Also, the solubility in [2] is 12.1 µg/mL (≈ 27.9 µM). In data set [3], this compound registered a logP of 3.01. Also, the Activity entry with PC-12 is “Dose-dependent effect”.

On to `Cc1nc(C)c(C(=O)N[C@@H](C(=O)N[C@@H](C)C(=O)Oc2ccc(-c3cc(=O)c4c(O)c(O)c(O)cc4o3)cc2)C(C)C)nc1C`, for which, in data set [1], the half-life was 51.6 h. The solubility in data set [2] was determined as 856 µg/mL (≈ 1420 µM). Besides, the logP in data set [3] was found to be 1.98. The Activity entry in the data set on PC-12 was “Dose-dependent effect”.
